How the values were obtained:
BV2 microglial cells [1] = experiment: LPS-induced TNFα secretion by BV2 microglia cell cultures (ELISA); type: cell-based, murine; settings: for effect on lipopolysaccharide-induced TNFα secretion: THC 0.1, 0.5 and 1 µM, CBDA 0.2, 1 and 2 µM, CBC 0.1, 1 and 2 µM, α-pinene, β-pinene, limonene 25 or 100 µM; for IC50: Mus musculus, BV-2, read-out: IC50 for inhibiting LPS-induced TNFα release; for levels of TNFα compared to cultures treated with vehicle and LPS: 24-hours incubation, CBD 10 but not 1 µM, linalool 100 but not 25 µM, kaempferol dose-dependently at 10, 25 and 50 µM, quercetin 10 and 25 but not 5 µM
Procedure: (§1) The BV2 murine microglial cell line is used in these studies.
(§2) The BV2 cells are cultured at 37° C. in a humidified atmosphere with 5% CO2 in high D-glucose (4.5 g/L) Dulbecco’s modified Eagle’s medium (Sigma, Rehovot, Israel) supplemented with 5% heat-inactivated fetal bovine serum, streptomycin (100 µg/ml), and penicillin (100 units/ml) and sodium pyruvate (1 mM; all from Biological Industries Ltd., Kibbutz Beit Haemek, Israel). 24 hours before experiments with LPS stimulation, the BV2 cells are split into 24 well plates, 2×10^5 cells per well, covered with 1 ml of growth medium and allowed to attach overnight. 24 hr before experiments with α-synuclein, the BV2 cells are split into 96-well plates, 50,000 (5×10^4) cells per well, covered with 200 µl of growth medium and allowed to attach overnight. Cultures of BV2 microglia cells are first treated by an individual cannabinoid, or terpene or flavonoid selected from: Cannabidiol (CBD), Δ-9-tetrahydrocannabinol (THC), Δ-8-tetrahydrocannabinol (THC), cannabigerol (CBG), cannabichromene (CBC), cannabigerolic acid (CBGA), Cannabidiolic acid (CBDA), THC acid (THCA), cannabichromenic Acid (CBCA), Cannabidivarin (CBDV), tetrahydrocannabivarin (THCV), Cannabichromevarin (CBCV), Cannabichromerocin ([…]), Cannabivarin (CBV), Cannabicitran (CBT), Cannabinol (CBN), Cannabicyclol (CBL), Cannabigerorcin (CBGO), Cannabinodiol (CBND), β-caryophyllene, β-elemene, β-myrcene, linalool, α-pinene, β-pinene, eucalyptol, alpha-terpineol, valencene, geraniol (lemonol), bisabolol, nerolidol, ocimene, terpinolene, humulene, α-terpinene, camphene, fenchol, α-phellandrene, Δ3-carene, γ-cardinene, sabinene, limonene, β-amyrin, cycloartenol, cannflavin A, cannflavin B, kaempferol, quercetin, luteolin, apigenin, canniprene, orientin, β-sitosterol, vitexin, isovitexin, and chrysin. Additional cultures of BV2 microglia cells are treated by an individual cannabinoid, with at least one additional cannabinoid, and/or terpene, and/or flavonoid, and/or celecoxib. Additional cultures are exposed to the vehicle of these compounds (cremophor, ethanol and PBS, 1:1:18 (v/v/v)) (FIG. 2A). In some studies, cultures of BV2 microglia cells are treated by a specific whole plant cannabis extract, with or without supplementation with cannabinoid(s), and/or terpene(s) and/or flavonoid(s), and/or celecoxib (FIG. 2B).
For each individual cannabinoid mentioned above, 3-4 concentrations are used, ranging from 0.1 to 10 µM. For ultra-low dose Δ9-THC the concentration used is 0.01 µM. […] For celecoxib, 3-4 concentrations are used, ranging from 0.1 to 10 µM. Two hours following the treatment, the cultures are exposed to one of the following microglia stimulators: LPS (Sigma L2630; Escherichia coli serotype O111:B4) is dissolved in D-PBS (Sigma, D8537) to a pre-stock concentration of 1 mg/ml, aliquoted and stored at -80° C. Stock solution of LPS at 10 ug/ml is prepared using sterile D-PBS, followed by filtering via 0.22 µm filter membrane, aliquoting and storing in -20° C. LPS is applied into the cell medium at a final concentration of 100 ng/ml. Poly I:C (Sigma, P1530) was first dissolved in sterile, molecular grade water to the concentration of 10 mg/ml (following the manufacturer’s instructions). This stock solution was further diluted to the concentration of 1 mg/ml in sterile PBS, and the aliquots stored in -20 °C.

BV2 microglial cells [2] = experiment: LPS-induced IL-6 release by BV2 microglia cell cultures (ELISA); type: cell-based, murine
Procedure: as §1, §2
(§3) For each individual cannabinoid mentioned above, 3-4 concentrations are used, ranging from 0.1 to 10 µM. For ultra-low dose Δ9-THC the concentration used is 0.01 µM. For each individual terpene or flavonoid mentioned above, 3-4 concentrations are used, ranging from 1 to 50 µM. For celecoxib, 3-4 concentrations are used, ranging from 0.1 to 10 µM. Two hours following the treatment, the cultures are exposed to one of the following microglia stimulators: LPS (Sigma L2630; Escherichia coli serotype O111:B4) is dissolved in D-PBS (Sigma, D8537) to a pre-stock concentration of 1 mg/ml, aliquoted and stored at -80° C. Stock solution of LPS at 10 ug/ml is prepared using sterile D-PBS, followed by filtering via 0.22 µm filter membrane, aliquoting and storing in -20° C. LPS is applied into the cell medium at a final concentration of 100 ng/ml. Poly I:C (Sigma, P1530) was first dissolved in sterile, molecular grade water to the concentration of 10 mg/ml (following the manufacturer’s instructions). This stock solution was further diluted to the concentration of 1 mg/ml in sterile PBS, and the aliquots stored in -20 °C.

LPS-injected mice = experiment: Body weight change and food consumption in the LPS-induced model of depression; type: in vivo; settings: Example 9; male C57BL/6, i.p. 1 h before LPS 330 µg/kg; mg/kg: CBD 30; CBD 30 plus THC 10; cannabinol 10; CBD 30 plus BCP 50
Source text: Animals were housed 2-3/cage, kept in an air-conditioned room (23+°C) and given ad libitum access to food and water. The mice were kept in a reversed light/dark cycle, with lights off from 7 a.m. to 7 p.m. All experiments were approved by the Hebrew University of Jerusalem Ethics Committee on Animal Care and Use. In preparation for the Sucrose Preference Test, mice were habituated 2-3 times to sucrose drinking, by exposing them overnight to two graduated tubes, one containing water and the other containing sucrose solution (1%, w/v). Water and sucrose consumption were measured, and sucrose preference was computed by dividing the amount of sucrose consumed by drinking (ml sucrose) by the total drinking volume (ml of sucrose + water). One day later, the weight of the mice and the food in their cages was weighed for later analysis of food consumption and body weight changes. Groups of mice were injected intraperitoneally (i.p.) with either vehicle (cremophor, ethanol and PBS, 1:1:18 (v/v/v)) or a cannabinoid-based formulation (by itself or with another cannabinoid, or a terpene or a flavonoid). One hour later, each of these groups was injected with LPS (330 µg/kg). All injections were administered at a dose of 10 ml/kg. Four hours following the LPS injection, mice were tested in the Open-Field Test. In this test, the measured locomotor activity reflects not only motor capacity, but particularly the innate motivation for spatial exploration (which increases the distance travelled) and the anxiety level (which reduces the distance travelled, in general, and particularly the distance and time spent in the center of the open field). Each subject was placed near one of the walls of a white 50 X 50 cm^2 arena with 40 cm high walls. The distance travelled (cm), the velocity of the movement (cm/second), the time spent (seconds), distance travelled (cm) in the center area of the arena, as well as the number of entries from the perimeter area into the center of the arena were automatically measured over a 4-minute period, using EthoVision XT video tracking system and software (Noldus, The Netherlands). Twenty-four hours after the LPS injection, mice were tested in the Social Exploration Test. In this test, the subject was placed in an observation cage containing a small metal wire mesh cage with a conspecific mouse inside it. Social exploration, defined as the time of near contact between the nose of the subject and the juvenile in the small cage was recorded for 4 min, using computerized in-house software. Sucrose preference was assessed, as described above, between 8 to 27 hr post LPS injection. Body weight and weight of the food were measured two hours before the LPS injection, and again after 24 hours, and the change in body weight and food consumption were calculated.
This particular study was conducted in several experimental cohorts, and not all compounds and all measures were studied in all cohort. However, each cohort included a vehicle-treated group; therefore, the scores in each behavioral test were converted to % of mean vehicle-treated group in every individual cohort/experiment. Statistical comparisons were computed using SPSS software and consisted of one-way analyses of variance (ANOVA), followed by post-hoc comparisons with the Student-Newman-Keuls method.

BV2 microglial cells [3] = experiment: α-synuclein-induced TNFα secretion by BV2 microglia cell cultures; type: cell-based, murine; settings: Mus musculus
Procedure: as §2
as §3, with “°C. […] To induce oligomerization, α-Synuclein solution is placed for 24 hours on a shaker with agitation of 80 rpm and at 37° C.” for “°C.”

BV2 microglial cells [4] = experiment: LPS-induced IL-1β release by BV2 microglia cell cultures (ELISA); type: cell-based, murine
Procedure: as §1, §2, §3

CCCCCc1cc(O)c2c(c1)OC(C)(CCC=C(C)C)C=C2 (stereo not shown) [CBC, cannabichromene]
effect on lipopolysaccharide-induced TNFα secretion (BV2 microglial cells [1]): no effect

C=C(C)[C@@H]1CCC(C)=C[C@H]1c1c(O)cc(CCC)cc1O [CBDV, cannabidivarin]
IL-6 secretion vs Veh plus LPS (BV2 microglial cells [2]; Example 6, CBD or CBDV given by themselves): no significant effect | times less potent than CBD in inhibiting IL-6 release (BV2 microglial cells [2]; Example 6, IC50 comparison): about 2 times | IC50 (BV2 microglial cells [2]; Mus musculus, BV-2, Example 6 (FIG. 7D), by itself, read-out: IC50 for inhibiting LPS-induced IL-6 release): 9.6 µM | times less potent than CBD in inhibiting TNFα release (BV2 microglial cells [1]; Example 6, IC50 comparison): ~6 times | release of TNFα vs LPS-activated cultures treated with vehicle (BV2 microglial cells [1]; Example 6, by itself, CBD 1, 2.5 and 5 µM, CBDV 1, 2.5, 5 and 10 µM): no concentration of either CBD or CBDV by itself affected release of TNFα | IC50 (BV2 microglial cells [1]): 27.9 µM

CCCCCc1cc(O)c2c(c1)OC(C)(C)[C@@H]1CCC(C)=C[C@@H]21 [THC, Δ-9 tetrahydrocannabinol]
effect on lipopolysaccharide-induced TNFα secretion (BV2 microglial cells [1]): no effect

CCCCCc1cc(O)c2c(c1)OC(C)(C)c1ccc(C)cc1-2 [cannabinol]
food consumption over 24 hr vs vehicle-treated group (LPS-injected mice): consumed significantly less food

Cc1ccc(-c2cc(C(F)(F)F)nn2-c2ccc(S(N)(=O)=O)cc2)cc1 [celecoxib]
IC50 (BV2 microglial cells [3]; BV-2, Example 8 (FIG. 9B), by itself, read-out: IC50, α-synuclein-induced TNFα release): 4.2 µM | IC50 (BV2 microglial cells [3]; BV-2, addition of 1 µM CBD, read-out: celecoxib IC50, α-synuclein-induced TNFα release): 2 µM | IC50 (BV2 microglial cells [3]; BV-2, addition of 2.5 µM CBD, read-out: celecoxib IC50, α-synuclein-induced TNFα release): 1.7 µM | IC50 (BV2 microglial cells [3]; BV-2, addition of 5 µM CBD, read-out: celecoxib IC50, α-synuclein-induced TNFα release): 1.1 µM

C=C(C)[C@H]1CC=C(C)CC1 [limonene]
effect on lipopolysaccharide-induced TNFα secretion (BV2 microglial cells [1]): no effects

C=CC(C)(O)CCC=C(C)C (stereo not shown) [linalool]
levels of TNFα compared to cultures treated with vehicle and LPS (BV2 microglial cells [1]): reduced

O=c1c(O)c(-c2ccc(O)c(O)c2)oc2cc(O)cc(O)c12 [quercetin]
IL-1β release vs Veh plus LPS (BV2 microglial cells [4]; Example 5, alone at 5 µM, no effect at 1 and 2.5 µM): significantly decreased IL-1β levels | IC50 (BV2 microglial cells [4]; Mus musculus, BV-2, Example 5 (FIG. 6D), by itself, read-out: IC50 for inhibiting LPS-induced IL-1β release): 2.6 µM | levels of TNFα compared to cultures treated with vehicle and LPS (BV2 microglial cells [1]): reduced | release of TNFα vs LPS-activated cultures treated with vehicle (BV2 microglial cells [1]; Example 5, by themselves, CBD 1 and 2.5 µM, quercetin 1, 2.5 and 5 µM): did not affect | IC50 (BV2 microglial cells [1]): 6.2 µM

CC1=CCC2CC1C2(C)C (stereo not drawn) [α-pinene]
effect on lipopolysaccharide-induced TNFα secretion (BV2 microglial cells [1]): no effects

C=C1CCC2CC1C2(C)C (stereo not drawn) [β-pinene]
effect on lipopolysaccharide-induced TNFα secretion (BV2 microglial cells [1]): no effects

Reference: patent US20230270764A1, “COMPOSITION COMPRISING CANNABINOIDS, TERPENES, AND FLAVONOIDS FOR TREATING DEPRESSION” (priority 2020, published 2023)
